Source: paper PMC5267425, “Identification of small molecule modulators of HIV-1 Tat and Rev protein accumulation” (Retrovirology, 2017)

Assays:
Type in all cases: cell-based
[1] = test system: HIV-1 Gag expression in SupT1 NLESG cells; assay: Gag (p24) ELISA in SupT1 24STNLESG cells after PMA induction; conditions: for inhibition of HIV-1 gene expression in CD4+ SupT1 cells: Figure S1; for IC50: Human immunodeficiency virus 1, SUP-T1
Experimental: Additional file 1: Figure S1. 791 and 833 Suppress HIV-1 Gene Expression in SupT1 24NESLG Cell Line. a Schematic of HIV-1 provirus used to generated the stably transduced SupT1 cell line. b Effect of 791 and 833 on Gag expression in SupT1 NLESG cells. Cells were treated with indicated concentrations of 791/833 then HIV-1 expression induced by PMA addition. Media harvested after 24 h was subsequently assayed using Gag (p24) ELISA. Cell viability was measured by an XTT assay. 892 was not active in this cell line at the concentrations tested Additional file 2: Figure S7. Effect of compounds on CEM-GXR cell viability. Evaluation of 791, 833, and 892 on CEM-GXR cell viability in the Guava ViaCount assay. Cells were analyzed after 24 h incubation with the compounds at the indicated concentrations ranging between 0–47 μM (791), 0–5 μM (833), or 0–62.5 μM (892). Results are expressed as the percentage (%) of viable cells relative to DMSO treatment ±SEM of two independent experiments performed in triplicate. Cytotoxic concentration resulting in the death of 50% of the host cells (CC50) relative to DMSO measured by ViaCount assay (Millipore) are listed in Table 1 Additional file 3: Table S1. Mutations in HIV-1 proteins associated with resistance to ARVs Additional file 4: Figure S2.Pattern of HIV-1 RNA splicing. Shown at the top is the organization of the HIV-1 proviral genome indicating the position of the multiple 5′ splice donor sites (SD1–SD4) and 3′ splice acceptor sites (SA1–SA7) used in splicing of pre-mRNA. In the middle is an illustration of the alternatively spliced RNAs generated by processing of the HIV-1 genomic RNA. Indicated are the common (open boxes) and alternative exons (closed boxes) used in the generation of the SS (4 kb) and MS (1.8 kb) viral RNAs. At the bottom is a list of the nomenclature used to refer to the exon composition of the individual RNAs generated for both the SS and MS classes of HIV-1 RNAs Additional file 5: Figure S3. Characterization of HeLa rtTA HIVGagGFP cell line. a Representative images of HeLa rtTA HIVGagGFP C7 cells treated with DMSO in the absence (uninduced) or presence (induced) of doxycyclin (N ≥ 3). Cells were viewed at 630X (oil immersion) magnification. Images are cropped to show a representative field of view. b The dose range of the compounds which inhibit HIV-1 GagGFP expression in HeLa rtTA HIVGagGFP C7 cells was measured by mean fluorescence intensity and expressed relative to fluorescence intensity in DMSO-treated samples (N ≥ 3, *p ≤ 0.05, **p ≤ 0.01, and ***p ≤ 0.001). The effect of the compounds on cellular metabolism at the indicated concentrations was measured using an XTT assay as a readout of viable cells and expressed relative to absorbance reads of DMSO-treated samples (N ≥ 3, *p ≤ 0.05, **p ≤ 0.01, and ***p ≤ 0.001). Error bars indicate standard error of the mean (SEM) Additional file 6: Figure S4. […] MG132 (10 μM) was added for 8 h as an additional control to determine whether inhibition of the proteasome prevents protein degradation. All uninduced (unind.) and 0 h samples were treated with DMSO. GAPDH serves as loading control. b Summary of effect of compounds on HIV-1 Tat degradation. Band volume intensities of both p14 and p16 Tat isoforms were calculated for each treatment relative to that of the DMSO control treatment and were then normalized to corresponding GAPDH bands (N ≥ 3, except for 833, N = 1–2). […]

[2] = test system: HIV-1 Tat (p14, p16) and Gag; assay: Rescue of Tat/Gag expression by proteasome inhibitor MG132; conditions: MG132 10 μM for 8 h in the presence of compound
Experimental: To assess effect of compounds on HIV-1 Tat stability, the decay of HIV-1 Tat levels was compared between DMSO-treated and compound-treated protein lysates in the presence of cycloheximide. In the first set of experiments, HIV-1 gene expression was induced with doxycylin (dox) for 24 h then 10 μg/mL cycloheximide was added to block new protein synthesis in combination with either DMSO or the compounds. Cells were harvested every 2 h and Tat protein levels measured by western blot. Quantification of the relative intensity of the detected bands was performed using ImageLab software (BioRad) and normalized to corresponding bands of the loading control (GAPDH) from at least three independent experiments. To determine whether the compounds’ effect on HIV-1 gene expression could be reversed by inhibition of the proteasome, compound treatment assay was performed as previously described with the addition of 10 μM MG132 (Sigma-Aldrich) to compound-treated cells 8 h prior to harvesting. Equal amounts of protein were run on 13 or 14% gels by SDS-PAGE, blotted and probed with antibodies for Tat and GAPDH. Quantification of the relative intensity of the detected bands was performed using ImageLab software (BioRad) and normalized to corresponding bands of the loading control (GAPDH) from at least three independent experiments.

[3] = XTT cell metabolism/viability assay, HeLa; conditions: human, HeLa rtTA HIV∆Mls cells
Experimental: (§1) Effects of compound treatment on cellular metabolism was assessed by an XTT-based in vitro toxicology assay kit (Sigma-Aldrich) or Trypan blue exclusion (Life Technologies) as proxy for degree of cytotoxicity and expressed relative to DMSO control treatment. For measurement of cell viability using XTT, culture media was removed after 24, 72, and 96 h of compound treatment, replaced with 20% XTT solution and incubated at 37 °C in a 5% CO2 humidified incubator for 2–6 h, and relative cell viability was measured in compound treated cells relative to DMSO-treated cells. Cell viability measurements in CEM-GXR cells are described above.

[4] = Trypan blue exclusion, HeLa; conditions: human, HeLa rtTA HIV∆Mls cells
Experimental: as §1

HIV-1 US RNA = assay: FISH of HIV-1 US RNA and GagGFP in HeLa rtTA HIV GagGFP C7 cells; conditions: 791 30 µM, 833 2 µM, 892 15 µM
Experimental: Changes in HIV-1 US RNA subcellular distribution in response to compound treatment was analyzed by fluorescent in situ hybridization in HeLa HIVrtTA GagGFP cells, as described by Wong et al.. Following washing to remove unbound probe, nuclei were stained with DAPI and images were acquired using a Leica DMR microscope at 630× magnification.

Compound	inhibition of HIV-1 gene expression in CD4+ SupT1 cells [1]	accumulation of both Tat isoforms on addition of MG132 [2]	CC50 [3] [µM]	CC50 [4] [µM]	GagGFP levels relative to DMSO (HIV-1 US RNA)	cytoplasmic accumulation of HIV-1 US RNA (HIV-1 US RNA)	IC50 [1] [µM]
COc1ccc(C=NNC(=O)c2ccccc2O)cc1O [Compound 892, 2-hydroxy-N′-(3-hydroxy-4-methoxybenzylidene)benzohydrazide]	not active	significant accumulation	> 40	> 40	reduced	prevented cytoplasmic accumulation	
O=C(NC(=S)NNC(=O)c1ccccc1O)c1ccc(-c2ccccc2)cc1 [Compound 833, N-([2-(2-hydroxybenzoyl)hydrazino]carbonothioyl}-4-biphenylcarboxamide]	maintained their inhibition	significant accumulation	≥ 40	> 10	reduced	prevented cytoplasmic accumulation	3.5
Cc1cc(NCc2cccnc2)n2ncc(-c3ccc(Cl)cc3)c2n1 [Compound 791, 3-(4-chlorophenyl)-5-methyl-N-(3-pyridinylmethyl)pyrazolo[1,5-a]pyrimidin-7-amine]	maintained their inhibition	significant accumulation	> 40	> 40	reduced	prevented cytoplasmic accumulation	26
